Patent US20110033946A1, “DETECTION OF SHORT-CHAIN FATTY ACIDS IN BIOLOGICAL SAMPLES” (HEMAQUEST PHARMACEUTICALS, INC., priority 2009, published 2011)

Experiment: Stock solution stability at approximately 4° C. (old vs new stock peak areas)
Format: physicochemical
Conditions: for Stock solution stability, RE % (to New) of old stock peak area: approximately 4° C.
Protocol: The following LC-MS/MS conditions were applied for the analysis of underivatized sodium 2,2-dimethylbutyrate and DMV for stock solution stability analysis (2 to 3.5 month), and system suitability associated with these analyses: The following samples were also analyzed either in conjunction with one of the precision and accuracy runs or in one of the additional validation runs. Samples from six lots of control human plasma for specificity. Samples from six lots of control human plasma fortified with internal standard for specificity. Two concentration levels of unextracted QC-samples in triplicate (solvent standards) were analyzed for the evaluation of the recovery of sodium 2,2-dimethylbutyrate and DMV in human plasma. Two levels of QC samples (Low QC and High QC in triplicate) were subjected to three freeze/thaw cycles at approximately −70° C. prior to extraction to evaluate freeze/thaw stability. Two levels of QC samples (Low QC and High QC in triplicate) were placed on the bench top for approximately 17 hours prior to extraction for the evaluation of the bench top stability. Triplicate low QC samples and triplicate high QC samples were stored for one month and three months in a freezer at approximately −70° C., and then extracted and analyzed to evaluate long term stability in human plasma. Two levels of extracted QC samples (Low QC and High QC) were re-analyzed after approximately 71 hours in the autosampler at room temperature to evaluate the extract autosampler stability. Two levels of extracted QC samples (Low QC and High QC) were re-analyzed after approximately 8 hours in the freezer at approximately −20° C. to evaluate the extract freeze stability. Three aliquots of a dilution QC sample diluted 10-fold. Triplicate dilutions of the old stock solution (stored at approximately 4° C.) and new stock solutions prepared at intervals of two weeks and one month. Statistical calculations in the report tables were calculated from unrounded concentration values taken directly from the raw data. The concentration values were rounded for display purposes. Fresh stock solutions of sodium 2,2-dimethylbutyrate were prepared at intervals of two weeks and 1, 2, 3 and 3.5 months after the initial standard preparation. Similarly, the stability intervals for DMV were two weeks and 1, 2 and 3 months. The initial (or old) stock solutions and the fresh stock solutions were diluted into the calibration standard range and analyzed. The peak areas for the fresh (new) and old standard solutions were compared. Beginning with the 2-month stability analysis, sodium 2,2-dimethylbutyrate and DMV stock solutions were analyzed underivatized. This was done since the peak areas of both sodium 2,2-dimethylbutyrate and DMV varied among replicate derivatized preparations. Analyzing the standard solutions underivatized was a simpler procedure which gave more accurate and precise results

- Stock solution stability, RE % (to New) of old stock peak area (1 Month Interval): 23.9%
- Stock solution stability, RE % (to New) of old stock peak area (2 Month Interval, underivatized): 14.3%
- Stock solution stability, RE % (to New) of old stock peak area (2 Week Interval): 16.7%
- Stock solution stability, RE % (to New) of old stock peak area (3 Month Interval, underivatized): 17.8%
- Stock solution stability, RE % (to New) of old stock peak area (~2 Month Interval, repeated with the 1 month stock solution as old, underivatized): −7.2%
- Time stock solutions are stable (stock solution in acetonitrile/water stored in a refrigerator at approximately 4° C.): at least 2 months
SMILES: CCCC(C)(C)C(=O)O [DMV, 2,2-Dimethylvaleric acid, reference compound]
